From the SangsterLogP compilation

Conditions: pH 1.0

Question: Which logD does the source give for O=C(O)c1cccc(Cl)c1 here?
Answer: 2.51

Question: Which logD does the source give for Oc1cccc(Br)c1 here?
Answer: 2.59

Same assay, conditions: pH 13.0

Question: For Nc1ccc(Br)cc1, which logD is on record?
Answer: 2

Question: Which logD does the source give for Cc1ccccc1N here?
Answer: 1.44

Question: For Nc1cccc(I)c1, which logD is on record?
Answer: 2.86

Question: With Cc1cccc(N)c1 as the molecule, how does the logD read?
Answer: 1.49

Question: With Nc1ccc(Cl)cc1 as the molecule, how does the logD read?
Answer: 1.8

Question: Which logD does the source give for Nc1cccc([N+](=O)[O-])c1 here?
Answer: 1.43

Conditions: not given

Question: Which logP does the source give for Oc1ccc(I)cc1 here?
Answer: 2.82

Question: With O=C(O)c1ccc(F)cc1 as the molecule, how does the logP read?
Answer: 1.99

Question: For O=C(O)c1cccc(I)c1, which logP is on record?
Answer: 3
